Measured values as given in patent US12611394B2, “Use of ginkgolide a in the treatment of autism” (CENTER FOR EXCELLENCE IN MOLECULAR CELL SCIENCE, CHINESE …, priority 2019, dated 2026).

Key:
Type in all cases: in vivo, mouse
[1] = system: heterozygous mutant mice carrying NR2F1 gene point mutation; experiment: Three-box experiment (sociability and social novelty test) after administration of ginkgolide A; conditions: mutant (+/m) mice, gavage 2 mg/kg once a day, 7-8 weeks after birth, tested at 8 weeks; FIG. 11
Procedure: a. Experimenter A entered the behavior room one hour before the experiment, took out a cage (four) of the experimental mice placed in the next room and placed them in the behavior room 1 hour. Meanwhile, the two mice needed in the experiment (note that the mice used here and the experimental mice cannot be in the same nest, and the sex should be the same) were placed in the behavior room 1 hour. Turn on the light to adapt it to the environment; b. Experimenter A started to clean the three boxes of equipment used in the experiment about half an hour before the experiment, sprayed the 30% alcohol on all parts of the three boxes, wiped gently with a white cloth, and then wiped dry with a new clean white cloth. Then two cages and two objects were washed. And the cloth used to block personnel and the experimental area was put up. c. At the same time, experimenter B began to debug the computer operating software: open the three-box experimental program and confirm whether the positions of the three boxes coincide with the position divided by the software. If not, please assist experimenter A in adjusting. […] After everything was ready, in the first round of the experiment, experimenter A put identical objects in areas 2 and 3, such as bottle caps. […] 5 min later, the experiment was ready to start. […] The experiment lasted 10 min, and the software recorded the time and distance of mice in each area. […]

[2] = system: heterozygous mutant mice carrying NR2F1 gene point mutation; experiment: Elevated-plus maze experiment after administration of ginkgolide A; conditions: mutant (+/m) mice, gavage 2 mg/kg once a day, 7-8 weeks after birth, tested at 8 weeks; FIG. 13
Procedure: The related anxiety state of mice were investigated by using the characteristics that mice like to explore in the new environment and the contradictory behavior of fear of heights with open arms at heights. In order to increase the total number of mice entering the arm and avoid hiding in the closed arm, the animals were usually placed in an open environment for 5 minutes and then placed in the maze. Similarly, the mice were placed in a room with an elevated experimental device to adapt to the environment one hour before the start of the experiment, with the red light turned on, and the room temperature was kept at 25° C. At the beginning of the experiment, hold the mouse into the palm of the hand, place it in the middle of the cross facing the closed arm, and quickly leave this room. Then another person started recording and tracking the activity movement of the mouse in another room. In the process, the times of the experimental mouse entering the open arm and the closed arm was counted, and the time of staying in the open arm and the closed arm was counted respectively; after the whole process was recorded for 5 minutes for the experiment, the mice were gently stroked, and put back into the cage. The elevated-plus table was cleaned with 70% alcohol for the experiment of the next mouse. The elevated-plus experiment is mainly used to detect the anxiety behavior of mice. […]

[3] = system: heterozygous mutant mice carrying NR2F1 gene point mutation; experiment: Self-grooming experiment after administration of ginkgolide A; conditions: mutant (+/m) mice, gavage 2 mg/kg once a day, 7-8 weeks after birth, tested at 8 weeks; FIG. 12
Procedure: The experimental mice were placed in a feeding cage with the bottom covered with feed and the height was no more than 1 cm. The time of grooming behavior in mice in 10 minutes was recorded. The grooming position includes face, head, neck, ears, etc. Subsequent self-grooming experiments were conducted to detect repetitive stereotyped behaviors. […] Ginkgolide A was administered to heterozygous mutant mice. The detailed administration scheme was as follows: the administration method was gavage treatment, the concentration of ginkgolide A was 2 mg/kg, the administration time is 7-8 weeks after the birth of mutant mice, and the administration frequency was once a day.

With C[C@@H]1C(=O)O[C@H]2C[C@@]34[C@H]5C[C@@H](C(C)(C)C)[C@]36[C@@H](OC(=O)[C@@H]6O)O[C@@]4(C(=O)O5)[C@]21O [ginkgolide A] the “time of interaction with similar mice (sociability)” value [1] was “significantly increased”, the “time of interaction with unfamiliar mice (social novelty)” value [1] was “significantly increased” and the “time to explore the open arm” value [2] was “increased significantly”. For the same molecule, the self-grooming time [3] was “significantly reduced”.
